# Patent US20230372335A1, “TREATMENT OF COGNITIVE IMPAIRMENT WITH A CNS-PENETRANT sGC STIMULATOR” (Cyclerion Therapeutics, Inc., priority 2020, published 2023)
# “Also recorded” adds a separate entry of the source.
# Assays:
# [1] = test system: healthy elderly participants; assay: Resting-state EEG power spectra, healthy elderly study NCT04240158; format: in vivo, human
# Method: Resting-state EEG recordings with open and closed eyes for 5 min in each eye state were performed. Each recording employed alternating periods with eyes open and closed with a duration of 64-seconds for each period. Participants faced a featureless wall and were instructed not to stare, not to move their head and eyes, and to suppress eye blinks.
# An EEG cap with electrodes at the Fz, Cz, Pz, and Oz positions (referring to frontal, central, parietal, and occipital regions at the midline, respectively) was used to record signals. Analyses of EEG-power spectra signals were carried out at the following frequency bands: • Delta-1-4 Hz (typically associated with sleep), Theta-4-7.5 Hz (associated with waking/falling asleep, some association with cognition), Alpha-8-12 Hz (associated with passive wakefulness, and with cognitive processing), Beta-12-25 Hz (associated with alertness and concentration) and Gamma-25-45 Hz (associated with higher cognitive function).
# (§1) This single-center double-blind, randomized, placebo-controlled, two-way, cross-over study evaluated a single dose level of IW-6463 compared to placebo. Subjects (male and female) were enrolled into 2 pre-defined, staggered cohorts (Cohort 1 and Cohort 2). The dose selected for both cohorts was the same but the start of enrollment within each cohort was different. This was based upon the availability of preliminary data from the previously started Phase 1 study NCT03856827 in healthy subjects and the emerging safety profile for that study from which a potential different second dose was being considered, but finally was not selected.
# (§2) One dosage regimen was studied in this clinical trial. For subjects receiving IW-6463 during the given dosing period, IW-6463 tablets were administered orally at a 15-mg total once-daily dose for. For subjects receiving placebo during the given dosing period, placebo tablets to match IW-6463 tablets were used. For Cohort 1, the 15 mg total oral daily dose was selected based on emerging data from the Phase 1 study NCT03856827, pre-clinical qEEG results, as well as multispecies PK parameters. For Cohort 2, in addition to the those data. the emerging data from Cohort 1 of this study supported selection of the 15 mg total oral daily dose.
# [2] = test system: healthy elderly participants; assay: N200 (MMN) auditory event-related potential by EEG, NCT04240158; format: in vivo, human; settings: for ERP N200 amplitude: vs placebo or pre-treatment (FIG. 3); for N200 latency response vs age: subjects older than 70 vs 65-69 years old (FIG. 4, FIG. 8)
# Method: In P300 and N200 ERP studies, participants were seated wearing the EEG cap and headphones and were instructed to sit still and relax. During the task, participants were presented with auditory tones. Participants were instructed to pay attention to the tones and press a response-button when they heard an infrequent/deviant tone. A total of 500 tones were presented over […], of which 400 were presented as frequent stimuli and 100 as deviant/infrequent stimuli. […] The first 5 trials were frequent tones and there were at least 2 frequent tones between 2 deviant/infrequent tones. The frequent and infrequent tones were 150 ms tones of 500 Hz and 1000 Hz at a sound pressure level of 75 dB, respectively. All tones has a 5 ms rise and fall time. Tones were presented at a fixed rate of 1 Hz.
# as §1, §2
# [3] = test system: healthy elderly participants; assay: Saccadic eye movements (SEM), NeuroCart, NCT04240158; format: in vivo, human; settings: 15 mg oral once daily
# Method: In this trial, SEMs were recorded at different times. Recording and analysis of SEMs were conducted with a microcomputer-based system for sampling and analysis of eye movements. The program for signal collection and the AD-converter was from Cambridge Electronic Design (CED Ltd., Cambridge, UK), the amplification by Grass (Grass-Telefactor, An Astro-Med, Inc. Product Group, Braintree, MA, USA) and the sampling and analysis scripts were developed at the CHDR (Leiden, the Netherlands). Disposable silver-silver chloride electrodes (Ambu Blue Sensor N) were applied on the forehead and beside the lateral canthi of both eyes of the participant for registration of the electro-oculographic signals. Skin resistance was reduced to less than 5 kOhm before measurements. […] SEMs were recorded for stimulus amplitudes of approximately 15 degrees to either side. Fifteen saccades were recorded with interstimulus intervals varying randomly between 3 and 6 seconds. […] Saccadic inaccuracy was calculated as the absolute value of the difference between the stimulus angle and the corresponding saccade, expressed as a percentage of the stimulus angle. SEMs were recorded in a training session at screening and during each Neurocart session (on day 1 and 15 of each treatment period at 2 hours pre-dose; on day 15 of each treatment period at 2, 3, and 6 hours post-dose). […]
# [4] = CSF concentration of study drug (pharmacokinetics), NCT04240158; format: in vivo, human
# Method: as §2
# The PK analysis population is defined as all participants who were randomized, received at least 1 dose of study drug, and have at least 1 measurable drug concentration of Compound 1 in collected samples.
# [5] = test system: healthy elderly participants; assay: Safety and tolerability (adverse events, blood pressure), NCT04240158; format: in vivo, human
# Method: Evaluations of systolic and diastolic blood pressure, pulse rate, respiratory rate, and temperature were performed throughout the study. Pulse and blood pressure were taken after the participant had rested quietly for 5 minutes in supine position. Automated oscillometric blood pressures and pulse rate were measured using a Dash 3000, Dash 4000, Dynamap 400, or Dynamap ProCare 400.
# as §2
# The safety population is defined as all participants who were randomized and received at least 1 dose of study drug.
# [6] = test system: CSF neuroinflammatory markers; assay: Exploratory CSF biomarker analysis, NCT04240158; format: in vivo, human; settings: after two weeks of treatment
# Excerpt: Biomarkers measured in the CSF included: neurofilament light chain (NF-L) and cGMP. Other biomarkers measured in CSF include A2M, C3, TIMP1, PAI1 MCP1, PARC (CCL18), MMP3 and TNFR2.
# [7] = test system: healthy subjects aged 18 to 62; assay: EEG in Phase I clinical trial NCT03856827; format: in vivo, human
# Excerpt: Nonclinical pharmacology and toxicology data supported conducting clinical studies of Compound Ito assess its safety, tolerability, pharmacokinetic (PK), and pharmacodynamics (PD) in humans. In a Phase I clinical trial (NCT03856827) changes were also observed in the brains of healthy subjects aged 18 to 62 by EEG.
# [8] = Plasma and CSF concentrations in NCT03856827 trial; format: in vivo, human; settings: total oral daily dose of 10 mg
# rats = settings: cited from earlier work
# rodents = settings: pre-clinical models; cited from earlier work
# pre-clinical models = settings: cited from earlier work
# [9] = healthy elderly, 15 mg oral once daily
# [10] = healthy elderly, 15 mg oral once daily, Day 15
# [11] = safety population, 15 mg oral once daily up to 15 days
smiles,measurement,setting,value
Fc1ccccc1Cc1nc(-c2nc(C(F)(F)F)n[nH]2)cn2ccnc12 [Compound I],mean alpha band power relative to placebo,"[1]; Day 15 prior to last dose and 2, 3, 6 hours after last dose (FIG. 1)",increased mean alpha band power relative to placebo at all post-baseline timepoints
same,"EEG (anterior) gamma power, change from baseline",[1]; [9],1 dB
same,"EEG (anterior) gamma power, increase from baseline",[1]; [9],45%
same,"EEG (anterior) alpha power, change from baseline",[1]; [10],0.6 dB
same,"EEG (anterior) alpha power, increase from baseline",[1]; [10],17.5%
same,"EEG (anterior) alpha power, treatment effect vs placebo",[1]; [10],13%
same,"EEG (posterior) alpha power, change relative to baseline",[1]; [10],0.5 dB
same,"EEG (posterior) alpha power, increase from baseline",[1]; [10],13.7%
same,"EEG (posterior) alpha power, treatment effect vs placebo",[1]; [10],17%
same,magnitude of improvement as age related change in N200 latency,"[2]; at older ages, after two weeks of treatment",10 year
same,ERP N200 latency,"[2]; healthy elderly, 15 mg oral once daily, day 14, compared with placebo, p=0.02",significantly shorter
same,ERP N200 amplitude,[2]; [9],larger N200 negative amplitudes were observed with increasing age
same,ERP N200 amplitude,"[2]; healthy elderly, 15 mg oral once daily, listed as IW-6463",increased the amplitude
same,N200 latency response vs age,[2],smaller latency increases with increasing age; also recorded: greater in subjects older than 70 years old
same,N200 latency response vs age,[2]; listed as IW-6463,greater in subjects older than 70 years old
same,LS mean difference in change from baseline for saccadic peak velocity vs placebo (95% CI),[3]; day 15,"28.53 (−2.76, 59.83)"
same,LS mean difference in change from baseline for saccadic latency (reaction time) vs placebo,"[3]; day 15, p=0.0216",-6.58 ms
same,concentration at 5 h,"[4]; human, CSF, 15 mg oral once daily, 5-hrs post last dose",77 nM
same,CSF concentration relative to threshold expected for pharmacological activity in the brain,[4]; threshold determined from preclinical models,2-3 times
same,headache (most commonly reported CNS event) rate,[5]; IW-6463 vs placebo,rates were similar between treatments
same,"AE reports of syncope, hypotension or other hemodynamic events",[5]; [11],"no AE reports of syncope, hypotension or other events potentially related to changes in hemodynamics"
same,blood pressure measurements below the normal range,[5]; [11],no blood pressure measurements reported below the normal range
same,CSF concentration of Alpha 2 macroglobulin (A2M) vs placebo,[6]; nominal p 0.013 (FIG. 9),potentially important reductions in the concentrations
same,CSF concentration of complement C3 (C3) vs placebo,[6]; nominal p 0.039 (FIG. 9),potentially important reductions in the concentrations
same,alpha power compared to placebo,"[7]; NCT03856827, day 14, across all dosage levels tested",Improvements in alpha power
same,ERP P300 amplitude,"[7]; healthy subjects aged 18 to 62, NCT03856827",increase in amplitude with increasing dose level
same,mean plasma and CSF concentrations vs threshold for pharmacological activity in the brain,[8],exceed the threshold
same,qEEG gamma power in combination with donepezil,"rats; 10 mg/kg oral plus 1 mg/kg donepezil, 1-2 hours post-dose",further increased
same,qEEG gamma oscillations / gamma power compared to vehicle dosing,rats; oral suspension,increased gamma oscillations
same,qEEG gamma power,rats; orally at 10 mg/kg,increased gamma power
same,activation of brain regions by fMRI-BOLD,rodents,activation of subcortical brain structures relevant to cognition
same,cerebral blood flow (CBF),rodents,increased cerebral blood flow
same,effects on memory and learning,pre-clinical models,displaying effects on memory and learning
same,effects on neuroinflammation,pre-clinical models,positive effects on neuroinflammation
same,neuroprotective properties,pre-clinical models,displayed neuroprotective properties
